Results from patent US20260308172A1, “TRICYCLIC COMPOUNDS FOR TREATMENT OF BACTERIAL INFECTIONS” (priority 2023, published 2026).
Values after ≈ are worked out from the molar mass of the structure shown.

What was measured:
[1] = system: Klebsiella pneumonia ATCC 43816; assay: Minimal Inhibitory Concentration (MIC) assay, Klebsiella pneumonia ATCC 43816; type: cell-based; settings: Klebsiella pneumoniae, ATCC43816, 20 h, read-out: MIC Klebsiella pneumoniae ATCC43816
Procedure: (§1) The antibacterial activity of the compounds of the present invention was evaluated against the commonly used quality control strain Escherichia coli ATCC 25922 and the rifampin-resistant mutant strain Klebsiella pneumonia ATCC 43816. Both were originally derived from human clinical samples and are available from ATCC (American Type Culture Collection). The in vitro potency of compounds to inhibit Escherichia coli (ATCC 25922) and Klebsiella pneumonia (ATCC 43816) growth was assessed by the MIC (Minimal Inhibitory Concentration) broth dilution method. Specifically compound dilutions were prepared from 10 mM DMSO stock solutions as follows: i) serial 2-fold dilution in 20 μL DMSO were prepared in a master plate (Greiner, Cat No: 651201), ii) 180 μL sterile distilled water was added to each aliquot and iii) 10 μL diluted compounds were transferred into a new assay plate (Costar, 3599).
(§2) Vials of each test microorganisms were maintained frozen in the vapor phase of a liquid nitrogen freezer. Single-use frozen vials of the two strains Escherichia coli ATCC 25922 (KWIKSTIK, 0335K) and Klebsiella pneumonia ATCC 43816, with predetermined CFU/mL, were taken out from the freezer, thawed at room temperature, and diluted in Cation-Adjusted Mueller Hinton Broth (CAMHB) to achieve a final inoculum of 5×10^5 CFU/mL. 90 μL bacteria containing broth was dispensed to the assay plate containing the pre-dispensed compound dilutions and mixed by pipetting 5 times.
(§3) Then the assay plates were incubated for 20 hours at 35° C. in ambient air. Following incubation, the MIC (μg/mL), the lowest concentration of drug that inhibits visible growth of the microorganism was read with the help of a magnification mirror and recorded.

[2] = system: Escherichia coli ATCC 25922; assay: Minimal Inhibitory Concentration (MIC) assay, Escherichia coli ATCC 25922; type: cell-based; settings: ATCC25922, 20 h, read-out: MIC Escherichia coli ATCC25922
Procedure: as §1, §2, §3

| SMILES | MIC [1] [mg/L] | MIC [2] [mg/L] |
| --- | --- | --- |
| CC1COC(C(F)(F)c2cc(Cl)nc(N3CCN(S(=O)(=O)c4ccc5c(c4)OC[C@H]4[C@H](CO)OC(=O)N54)CC3)c2)CN1 (stereo partly drawn) [Example 040, (3R,3aS)-7-[4-[6-chloro-4-[difluoro-(5-methylmorpholin-2-yl)methyl]-2-pyridyl]piperazin-1-yl]sulfonyl-3-(hydroxymethyl)-3a,4-dihydro-3H-oxazolo[4,3-c][1,4]benzoxazin-1-one] | 0.29 (≈ 0.46 µM) | 0.29 (≈ 0.46 µM) |
| O=C1O[C@@H](CO)[C@@H]2COc3cc(S(=O)(=O)N4CCN(c5cc(C(F)(F)[C@@H]6CNCCO6)cc(Cl)n5)CC4)ccc3N12 (relative stereo) [Example 050, trans-7-[4-[6-chloro-4-[difluoro-[(2S)-morpholin-2-yl]methyl]-2-pyridyl]piperazin-1-yl]sulfonyl-3-(hydroxymethyl)-3a,4-dihydro-3H-oxazolo[4,3-c][1,4]benzoxazin-1-one] | 0.48 (≈ 0.779 µM) | 0.48 (≈ 0.779 µM) |
| NC[C@@H]1OC(=O)N2c3ccc(S(=O)(=O)N4CCN(c5cc(S(=O)(=O)c6ccc(N)cc6)cc(Cl)n5)CC4)cc3OC[C@@H]12 (relative stereo) [Example 004] | 0.26 (≈ 0.409 µM) | 0.52 (≈ 0.819 µM) |
| NC[C@@H]1OC(=O)N2c3ccc(S(=O)(=O)N4CCN(c5cc(C(F)(F)C6C7COCC76)cc(Cl)n5)CC4)cc3OC[C@@H]12 (relative stereo) [Example 018] | 0.28 (≈ 0.457 µM) | 0.28 (≈ 0.457 µM) |
| C[N@+]1(CC(N)=O)CCC[C@H]1C(=O)N[C@H]1CC[C@H](C(F)(F)c2cc(Cl)nc(N3CCN(S(=O)(=O)c4ccc5c(c4)OC[C@@H]4[C@H](CO)OC(=O)N54)CC3)c2)CC1 [Example 059, (1R,2S)—N-[4-[[2-[4-[[(3R,3aR)-3-(hydroxymethyl)-1-oxo-3a,4-dihydro-3H-oxazolo[4,3-c][1,4]benzoxazin-7-yl]sulfonyl]piperazin-1-yl]-6-chloro-4-pyridyl]-difluoro-methyl]cyclohexyl]-1-(2-amino-2-oxo-ethyl)-1-methyl-pyrrolidin-1-ium-2-carboxamide;chloride] | 0.66 | 0.66 |
| NC[C@H]1OC(=O)N2c3ccc(S(=O)(=O)N4CCN(c5cc(S(=O)(=O)C6CC6)cc(Cl)n5)CC4)cc3OC[C@@H]12 (relative stereo) [Example 005] | 1 (≈ 1.71 µM) | 0.97 (≈ 1.66 µM) |
| O=C1CCC2COc3cc(S(=O)(=O)N4CCN(c5cc(C(F)(F)[C@H]6CNCCO6)cc(Cl)n5)CC4)ccc3N12 (stereo partly drawn) [Example 030, 7-[4-[6-Chloro-4-[difluoro-[(2R)-morpholin-2-yl]methyl]-2-pyridyl]piperazin-1-yl]sulfonyl-2,3,3a,4-tetrahydropyrrolo[2,1-c][1,4]benzoxazin-1-one] | 0.492 (≈ 0.842 µM) | 0.49 (≈ 0.839 µM) |
| CN1CC=C(C(F)(F)c2cc(Cl)nc(N3CCN(S(=O)(=O)c4ccc5c(c4)OC[C@H]4[C@@H](CN)OC(=O)N54)CC3)c2)CC1 (stereo in doubt) [Example 020, cis-3-(aminomethyl)-7-[4-[6-chloro-4-[difluoro-(1-methyl-3,6-dihydro-2H-pyridin-4-yl)methyl]-2-pyridyl]piperazin-1-yl]sulfonyl-3a,4-dihydro-3H-oxazolo[4,3-c][1,4]benzoxazin-1-one] | 0.29 (≈ 0.464 µM) | 0.29 (≈ 0.464 µM) |
| O=C1CC(NC2CCNCC2)C2COc3cc(S(=O)(=O)N4CCN(c5cc(C(F)(F)[C@@H]6COCCO6)cc(Cl)n5)CC4)ccc3N12 (mixture of isomers) [Example 027, 7-[4-[6-Chloro-4-[difluoro-[rac-(2S)-1,4-dioxan-2-yl]methyl]-2-pyridyl]piperazin-1-yl]sulfonyl-3-(4-piperidylamino)-2,3,3a,4-tetrahydropyrrolo[2,1-c][1,4]benzoxazin-1-one] | 2.14 (≈ 3.13 µM) | 2.1 (≈ 3.07 µM) |
| Nc1ccc(S(=O)(=O)c2cc(Br)nc(N3CCN(S(=O)(=O)c4ccc5c(c4)OCC4CCC(=O)N54)CC3)c2)cc1 (centres unmarked) [Example 014, 7-[4-[4-(4-Aminophenyl)sulfonyl-6-bromo-2-pyridyl]piperazin-1-yl]sulfonyl-2,3,3a,4-tetrahydropyrrolo[2,1-c][1,4]benzoxazin-1-one] | 0.51 (≈ 0.786 µM) | 0.51 (≈ 0.786 µM) |
| O=C1O[C@@H](CO)[C@H]2COc3cc(S(=O)(=O)N4CCN(c5cc(C(F)(F)C67CNCC6C7)cc(Cl)n5)CC4)ccc3N12 (stereo partly drawn) [Example 036, (3R,3aR)-7-[4-[4-[3-azabicyclo[3.1.0]hexan-1-yl(difluoro)methyl]-6-chloro-2-pyridyl]piperazin-1-yl]sulfonyl-3-(hydroxymethyl)-3a,4-dihydro-3H-oxazolo[4,3-c][1,4]benzoxazin-1-one] | 0.14 (≈ 0.229 µM) | 0.14 (≈ 0.229 µM) |
| Nc1ccc(S(=O)(=O)c2cc(Cl)nc(N3CCN(S(=O)(=O)c4ccc5c(c4)OCC4CCC(=O)N54)CC3)c2)cc1 (centres unmarked) [Example 013, 7-[4-[4-(4-Aminophenyl)sulfonyl-6-chloro-2-pyridyl]piperazin-1-yl]sulfonyl-2,3,3a,4-tetrahydropyrrolo[2,1-c][1,4]benzoxazin-1-one] | 0.24 (≈ 0.397 µM) | 0.47 (≈ 0.778 µM) |
| O=C1CCC2COc3cc(S(=O)(=O)N4CCN(c5cc(C(F)(F)F)cc(Cl)n5)CC4)ccc3N12 (centres unmarked) [Example 012, 7-[4-[6-Chloro-4-(trifluoromethyl)-2-pyridyl]piperazin-1-yl]sulfonyl-2,3,3a,4-tetrahydropyrrolo[2,1-c][1,4]benzoxazin-1-one] |  | 0.61 (≈ 1.18 µM) |
| NC[C@@H]1OC(=O)N2c3ccc(S(=O)(=O)N4CCN(c5cc(C(F)(F)F)cc(Cl)n5)CC4)cc3OC[C@@H]12 (relative stereo) [Example 001] | 0.46 (≈ 0.84 µM) | 0.46 (≈ 0.84 µM) |
| NC[C@H]1OC(=O)N2c3ccc(S(=O)(=O)N4CCN(c5cc(C(F)(F)[C@H]6CNCCO6)cc(Cl)n5)CC4)cc3OC[C@H]12 [Example 024, (3R,3aR)-3-(aminomethyl)-7-[4-[6-chloro-4-[difluoro-[(2R)-morpholin-2-yl]methyl]-2-pyridyl]piperazin-1-yl]sulfonyl-3a,4-dihydro-3H-oxazolo[4,3-c][1,4]benzoxazin-1-one] | 1.32 (≈ 2.15 µM) | 0.66 (≈ 1.07 µM) |
| NC1CC(=O)N2c3ccc(S(=O)(=O)N4CCN(c5cc(C(F)(F)[C@H]6CNCCO6)cc(Cl)n5)CC4)cc3OCC12 (stereo partly drawn) [Example 031, 3-Amino-7-[4-[6-chloro-4-[difluoro-[(2R)-morpholin-2-yl]methyl]-2-pyridyl]piperazin-1-yl]sulfonyl-2,3,3a,4-tetrahydropyrrolo[2,1-c][1,4]benzoxazin-1-one] | 1.01 (≈ 1.68 µM) | 0.25 (≈ 0.417 µM) |
| C[N@@+]1(CC(N)=O)CCC[C@H]1C(=O)N[C@H]1CC[C@H](C(F)(F)c2cc(Cl)nc(N3CCN(S(=O)(=O)c4ccc5c(c4)OC[C@@H]4[C@H](CO)OC(=O)N54)CC3)c2)CC1 [Example 058, (1S,2S)—N-[4-[[2-[4-[[(3R,3aR)-3-(hydroxymethyl)-1-oxo-3a,4-dihydro-3H-oxazolo[4,3-c][1,4]benzoxazin-7-yl]sulfonyl]piperazin-1-yl]-6-chloro-4-pyridyl]-difluoro-methyl]cyclohexyl]-1-(2-amino-2-oxo-ethyl)-1-methyl-pyrrolidin-1-ium-2-carboxamide;chloride] | 1.32 | 1.3 |
| NC[C@H]1OC(=O)N2c3ccc(S(=O)(=O)N4CCN(c5cc(C(F)(F)[C@@H]6COCCO6)cc(Cl)n5)CC4)cc3OC[C@@H]12 [Example 021, (3R,3aS)-3-(Aminomethyl)-7-[4-[6-chloro-4-[[(2S)-1,4-dioxan-2-yl]-difluoro-methyl]-2-pyridyl]piperazin-1-yl]sulfonyl-3a,4-dihydro-3H-oxazolo[4,3-c][1,4]benzoxazin-1-one] | 0.51 (≈ 0.828 µM) | 0.26 (≈ 0.422 µM) |
